Experiments:
[1] = test system: G4 MYC (DNA, G4) TGAGGGTGGGTAGGGTGGGTAA; assay: fluorescent intercalator displacement; details: 100 mM K+, 10 mM lithium cacodylate pH 7.3, thiazole orange displaced
[2] = test system: G4 MYC (DNA, G4) TGAGGGTGGGTAGGGTGGGTAA; assay: CD titration; details: 100 mM Li+, 10 mM Tris-HCl pH 7.4, 20 °C, 10 µM DNA
[3] = test system: dsDNA (DNA, duplex) CAATCGGATCGAATTCGATCCGATTG; assay: fluorescent intercalator displacement; details: 100 mM K+, 10 mM lithium cacodylate pH 7.3, thiazole orange displaced
[4] = test system: G4 KIT1 (DNA, G4) AGGGAGGGCGCTGGGAGGAGGG; assay: CD titration; details: 100 mM Li+; 10 mM Tris-HCl pH 7.4, 20 °C; 10 µM DNA; 405 nm illuminated; G4 induction

With `NCCOc1cc(NC(=O)c2ccc3c(c2)/N=N/c2cc(-c4cnc5ccccc5c4)ccc2CC3)nc2ccccc12` the “apparent Kd” value [1] was 970 ± 60 nM.

With `NCCOc1cc(NC(=O)c2ccc3c(c2)/N=N\c2cc(C4=CCNCC4)ccc2CC3)nc2ccccc12` the binding ([2]; dark, slight shift at 30 µM) was “weak”, the DC50 ([1]; dark) was 12460 ± 650 nM and the “apparent Kd” value ([1]; dark, b14 prints error as 0.65) was 4970 ± 260 nM. For the same molecule, the binding ([3]; dark) was “no”.

In the case of `NCCOc1cc(NC(=O)c2ccc3c(c2)/N=N/c2cc(C4=CCNCC4)ccc2CC3)nc2ccccc12`, the binding ([2]; 405 nm illuminated, parallel G4 induction) is reported as “yes”, the binding [4] is reported as “yes” and the DC50 ([1]; normalized to trans isomer) is reported as 1150 ± 60 nM. The “apparent Kd” value ([1]; derived from DC50 normalized to trans isomer) was 460 ± 20 nM and the binding ([3]; 405 nm illuminated) was “no”.

For `NCCOc1cc(NC(=O)c2ccc3c(c2)/N=N/c2cc(-c4ccc5cccnc5c4)ccc2CC3)nc2ccccc12`, the “apparent Kd” value [1] was 1000 ± 30 nM.

`NCCOc1cc(NC(=O)c2ccc3c(c2)/N=N/c2cc(C4=CCN(CCNC(=O)CCOCCOCCOCCOCCNC(=O)CCCC[C@@H]5SC[C@@H]6NC(=O)N[C@@H]65)CC4)ccc2CC3)nc2ccccc12` was tested, and the DC50 ([1]; normalized to trans isomer) was 1580 ± 50 nM, the “apparent Kd” value ([1]; derived from normalized DC50) was 630 ± 20 nM and the binding ([3]; highest 5 µM, 405 nm illuminated) was “no”.

With `NCCOc1cc(NC(=O)c2ccc3c(c2)/N=N/c2cc(-c4ccc(N5CCCCC5)cc4)ccc2CC3)nc2ccccc12` the “apparent Kd” value [1] was 760 ± 130 nM.

With `NCCOc1cc(NC(=O)c2ccc3c(c2)/N=N/c2cc(-c4ccc5ncccc5c4)ccc2CC3)nc2ccccc12` the “apparent Kd” value [1] was 940 ± 30 nM.

Reference: paper PMC12141046 (2025)
